Measured values taken from patent publication US12404241B2 (Celgene Corporation, priority 2018, dated 2025).
Where a name gives a salt, the structure may show the parent alone. Read-outs that look alike come from different tables or passages of the source.

Target: T1, AR (Homo sapiens, UniProt P10275)
T1 construct: endogenous in cells; host or cells: VCaP cells
T1 sequence (P10275 1-920): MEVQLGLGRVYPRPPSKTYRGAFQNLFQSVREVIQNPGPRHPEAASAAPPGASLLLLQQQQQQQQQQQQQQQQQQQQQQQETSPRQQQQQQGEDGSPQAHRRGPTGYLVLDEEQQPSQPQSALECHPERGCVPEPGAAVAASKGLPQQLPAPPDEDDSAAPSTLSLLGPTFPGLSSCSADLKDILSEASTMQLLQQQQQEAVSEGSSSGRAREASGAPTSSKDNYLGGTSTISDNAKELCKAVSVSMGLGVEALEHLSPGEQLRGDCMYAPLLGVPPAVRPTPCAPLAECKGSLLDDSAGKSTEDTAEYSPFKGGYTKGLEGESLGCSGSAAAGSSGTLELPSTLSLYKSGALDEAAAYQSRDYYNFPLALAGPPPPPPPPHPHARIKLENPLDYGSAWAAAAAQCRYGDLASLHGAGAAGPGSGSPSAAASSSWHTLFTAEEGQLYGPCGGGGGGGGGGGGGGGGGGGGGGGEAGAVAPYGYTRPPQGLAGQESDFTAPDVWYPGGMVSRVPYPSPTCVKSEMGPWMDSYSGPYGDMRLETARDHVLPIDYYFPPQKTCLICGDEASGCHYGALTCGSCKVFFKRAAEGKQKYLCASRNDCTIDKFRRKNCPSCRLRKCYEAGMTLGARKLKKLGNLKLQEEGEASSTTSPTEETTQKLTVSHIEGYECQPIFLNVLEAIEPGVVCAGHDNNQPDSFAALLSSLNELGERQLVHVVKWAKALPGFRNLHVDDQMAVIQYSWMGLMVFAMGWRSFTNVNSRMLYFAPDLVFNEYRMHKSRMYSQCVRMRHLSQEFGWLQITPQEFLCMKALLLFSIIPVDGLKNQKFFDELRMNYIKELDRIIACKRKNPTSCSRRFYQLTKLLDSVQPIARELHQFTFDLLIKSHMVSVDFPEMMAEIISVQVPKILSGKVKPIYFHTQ
Experiment: VCAP AR Degradation Assay
Format: cell-based
Conditions: for Y (AR degradation efficiency, % of DMSO control): class symbols *; for DC50: class symbols A-C
In short: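 24 h, 37 °C, VCaP (DMEM/8% FBS), 10-pt 1:3 dilutions from 5 μM final top, 0.1% DMSO ctrl. Lysis on ice/4 °C 1 h; total AR by sandwich ELISA, normalized to DMSO. 4PL fit → DC50, EC50, Y (min AR level).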

Row | SMILES | Y (AR degradation efficiency, % of DMSO control) | DC50 (read-out: DC50) | DC50
1 | C[C@@H]1CN(CCOc2ccc(N3C(=S)N(c4ccc(C#N)c(C(F)(F)F)c4)C(=O)C3(C)C)cc2C2CC2)C[C@H](C)N1CC(=O)Nc1cccc(N[C@@H]2CCC(=O)NC2=O)c1 [Example 288, 2-((2R,6S)-4-(2-(4-(3-(4-cyano-3-(trifluoromethyl)phenyl)-5,5-dimethyl-4-oxo-2-thioxoimidazolidin-1-yl)-2-cyclopropylphenoxy)ethyl)-2,6-dimethylpiperazin-1-yl)-N-(3-((R)-2,6-dioxopiperidin-3-ylamino)phenyl)acetamide] | * (0<Y<=25%) | < 100 nM | 
2 | C[C@@H]1CN(CCOc2ccc(N3C(=S)N(c4cnc(C#N)c(C(F)(F)F)c4)C(=O)C3(C)C)cc2C(C)(F)F)CCN1CC(=O)Nc1cc(Cl)cc(NC2CCC(=O)NC2=O)c1 (stereo partly drawn) [Example 149, N-(3-chloro-5-(2,6-dioxopiperidin-3-ylamino)phenyl)-2-((R)-4-(2-(4-(3-(6-cyano-5-(trifluoromethyl)pyridin-3-yl)-5,5-dimethyl-4-oxo-2-thioxoimidazolidin-1-yl)-2-(1,1-difluoroethyl)phenoxy)ethyl)-2-methylpiperazin-1-yl)acetamide] | * (0<Y<=25%) | < 100 nM | 
3 | C[C@@H]1CN(CCOc2ccc(N3C(=S)N(c4cnc(C#N)c(C(F)(F)F)c4)C(=O)C34CCC4)cc2C2CC2)C[C@H](C)N1CC(=O)Nc1cccc(NC2CCC(=O)NC2=O)c1 (stereo partly drawn) [Example 196, 2-((2S,6R)-4-(2-(4-(7-(6-cyano-5-(trifluoromethyl)pyridin-3-yl)-8-oxo-6-thioxo-5,7-diazaspiro[3.4]octan-5-yl)-2-cyclopropylphenoxy)ethyl)-2,6-dimethylpiperazin-1-yl)-N-(3-(2,6-dioxopiperidin-3-ylamino)phenyl)acetamide] | * (0<Y<=25%) | < 100 nM | 
4 | CCc1cc(N2C(=S)N(c3ccc(C#N)c(C(F)(F)F)c3)C(=O)C2(C)C)ccc1OCCN1C[C@@H](C)N(CC(=O)Nc2cccc(NC3CCC(=O)NC3=O)c2)C[C@H]1C (stereo partly drawn) [Example 127, 2-((2R,5R)-4-(2-(4-(3-(4-cyano-3-(trifluoromethyl)phenyl)-5,5-dimethyl-4-oxo-2-thioxoimidazolidin-1-yl)-2-ethylphenoxy)ethyl)-2,5-dimethylpiperazin-1-yl)-N-(3-(2,6-dioxopiperidin-3-ylamino)phenyl)acetamide] | * (0<Y<=25%) | < 100 nM | 
5 | CCc1cc(N2C(=S)N(c3ccc(C#N)c(C(F)(F)F)c3)C(=O)C2(C)C)ccc1OC[C@H](C)N1C[C@@H](C)N(CC(=O)Nc2cccc(NC3CCC(=O)NC3=O)c2)[C@@H](C)C1 (single isomer, unassigned) [Example 236] | ** (25%<Y<=35%) | 100 to 500 nM | 
6 | CC1(C)C(=O)N(c2ccc(C#N)c(C(F)(F)F)c2)C(=S)N1c1ccc(OCCN2CCN(CC(=O)Nc3cccc(NC4CCC(=O)NC4=O)c3)CC2)c(C2CCC2)c1 (stereo not shown) [Example 31, trifluoroacetate] | * (0<Y<=25%) | < 100 nM | 
7 | CC(C)c1cc(N2C(=S)N(c3cnc(C#N)c(C(F)(F)F)c3)C(=O)C23CCC3)ccc1OCCN1C[C@@H](C)N(CC(=O)Nc2cc(Cl)cc(NC3CCC(=O)NC3=O)c2)[C@@H](C)C1 (stereo partly drawn) [Example 195, N-(3-chloro-5-(2,6-dioxopiperidin-3-ylamino)phenyl)-2-((2S,6R)-4-(2-(4-(7-(6-cyano-5-(trifluoromethyl)pyridin-3-yl)-8-oxo-6-thioxo-5,7-diazaspiro[3.4]octan-5-yl)-2-isopropylphenoxy)ethyl)-2,6-dimethylpiperazin-1-yl)acetamide] | * (0<Y<=25%) | < 100 nM | 
8 | CCc1cc(N2C(=S)N(c3cnc(C#N)c(C(F)(F)F)c3)C(=O)C2(C)C)ccc1OCCN1CC2CCC(C1)N2CC(=O)Nc1cc(Cl)cc(NC2CCC(=O)NC2=O)c1 (stereo not shown) [Example 173, N-(3-chloro-5-(2,6-dioxopiperidin-3-ylamino)phenyl)-2-(3-(2-(4-(3-(6-cyano-5-(trifluoromethyl)pyridin-3-yl)-5,5-dimethyl-4-oxo-2-thioxoimidazolidin-1-yl)-2-ethylphenoxy)ethyl)-3,8-diazabicyclo[3.2.1]octan-8-yl)acetamide] | * (0<Y<=25%) |  | < 100 nM
9 | CCc1cc(N2C(=S)N(c3ccc(C#N)c(C(F)(F)F)c3)C(=O)C23CCCCC3)ccc1OCCN1C[C@@H](C)N(CC(=O)Nc2cccc(NC3CCC(=O)NC3=O)c2)[C@@H](C)C1 (stereo partly drawn) [Example 264, 2-((2S,6R)-4-(2-(4-(3-(4-cyano-3-(trifluoromethyl)phenyl)-4-oxo-2-thioxo-1,3-diazaspiro[4.5]decan-1-yl)-2-ethylphenoxy)ethyl)-2,6-dimethylpiperazin-1-yl)-N-(3-(2,6-dioxopiperidin-3-ylamino)phenyl)acetamide] | * (0<Y<=25%) | < 100 nM | 
10 | N#Cc1ccc(N2C(=O)C3(CCC3)N(c3ccc(OCCN4CCN(CC(=O)Nc5cccc(NC6CCC(=O)NC6=O)c5)CC4)c(Cl)c3)C2=S)cc1C(F)(F)F (stereo not shown) [Example 7, hydrochloride] | * (0<Y<=25%) | < 100 nM | 
11 | CCc1cc(N2C(=S)N(c3cnc(C#N)c(C(F)(F)F)c3)C(=O)C23CCC3)ccc1OCCN1CCN(CC(=O)Nc2cccc(NC3CCC(=O)NC3=O)c2)C(C)(C)C1 (stereo not shown) [Example 134, 2-(4-(2-(4-(7-(6-cyano-5-(trifluoromethyl)pyridin-3-yl)-8-oxo-6-thioxo-5,7-diazaspiro[3.4]octan-5-yl)-2-ethylphenoxy)ethyl)-2,2-dimethylpiperazin-1-yl)-N-(3-(2,6-dioxopiperidin-3-ylamino)phenyl)acetamide] | * (0<Y<=25%) | < 100 nM | 
12 | CC(C)c1cc(N2C(=S)N(c3cnc(C#N)c(C(F)(F)F)c3)C(=O)C2(C)C)ccc1OCCN1CCN(CC(=O)Nc2cccc(NC3CCC(=O)NC3=O)c2)CC1 (stereo not shown) [Example 53, 2-(4-(2-(4-(3-(6-cyano-5-(trifluoromethyl)pyridin-3-yl)-5,5-dimethyl-4-oxo-2-thioxoimidazolidin-1-yl)-2-isopropylphenoxy)ethyl)piperazin-1-yl)-N-(3-(2,6-dioxopiperidin-3-ylamino)phenyl)acetamide] | * (0<Y<=25%) | < 100 nM | 
13 | CC(C)c1cc(N2C(=S)N(c3ccc(C#N)c(C(F)(F)F)c3)C(=O)C2(C)C)cnc1OCCN1C[C@@H](C)N(CC(=O)Nc2cccc(NC3CCC(=O)NC3=O)c2)[C@@H](C)C1 (stereo partly drawn) [Example 224, 2-((2R,6S)-4-(2-(5-(3-(4-cyano-3-(trifluoromethyl)phenyl)-5,5-dimethyl-4-oxo-2-thioxoimidazolidin-1-yl)-3-isopropylpyridin-2-yloxy)ethyl)-2,6-dimethylpiperazin-1-yl)-N-(3-(2,6-dioxopiperidin-3-ylamino)phenyl)acetamide] | ** (25%<Y<=35%) | 100 to 500 nM | 
14 | CCc1cc(N2C(=S)N(c3cnc(C#N)c(C(F)(F)F)c3)C(=O)C2(C)C)ccc1OCCN1CCN(CC(=O)Nc2cc(F)cc(NC3CCC(=O)NC3=O)c2)C2(CC2)C1 (stereo not shown) [Example 110, 2-(7-(2-(4-(3-(6-cyano-5-(trifluoromethyl)pyridin-3-yl)-5,5-dimethyl-4-oxo-2-thioxoimidazolidin-1-yl)-2-ethylphenoxy)ethyl)-4,7-diazaspiro[2.5]octan-4-yl)-N-(3-(2,6-dioxopiperidin-3-ylamino)-5-fluorophenyl)acetamide] | * (0<Y<=25%) | < 100 nM | 
